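Protocol summary: plate cells (96-well), add compound at 5 concentrations, incubate 48 h, interpolate endpoints linearly. GI50 marks 50% less growth. At the TGI there is no net growth.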
Assays:
Experiment in all cases: NCI-60 cell line screen, 48 h
[1] = system: 786-0 renal
[2] = system: A498 renal
[3] = system: A549 NSCLC
[4] = system: ACHN renal
[5] = system: BT-549 breast
[6] = system: CAKI-1 renal
[7] = system: COLO 205 colon
[8] = system: DU-145 prostate
[9] = system: EKVX NSCLC
[10] = system: HCC-2998 colon
[11] = system: HCT-116 colon
[12] = system: HCT-15 colon
[13] = system: HOP-92 NSCLC
[14] = system: HS 578T breast
[15] = system: HT29 colon
[16] = system: IGROV1 ovarian
[17] = system: KM12 colon
[18] = system: LOX IMVI melanoma
[19] = system: M14 melanoma
[20] = system: MALME-3M melanoma
[21] = system: MCF7 breast
[22] = system: MDA-MB-231 breast
[23] = system: MDA-MB-435
[24] = system: NCI-H226 lung
[25] = system: NCI-H23 lung
[26] = system: NCI-H460 lung
[27] = system: NCI-H522 lung
[28] = system: NCI/ADR-RES ovarian
[29] = system: OVCAR-3 ovarian
[30] = system: OVCAR-4 ovarian
[31] = system: OVCAR-5 ovarian
[32] = system: OVCAR-8 ovarian
[33] = system: PC-3 prostate
[34] = system: RPMI-8226 leukemia
[35] = system: RXF 393 renal
[36] = system: SF-268 CNS
[37] = system: SF-295 CNS
[38] = system: SF-539 CNS
[39] = system: SK-MEL-2 melanoma
[40] = system: SK-MEL-28 melanoma
[41] = system: SK-MEL-5 melanoma
[42] = system: SK-OV-3 ovarian
[43] = system: SN12C renal
[44] = system: SNB-19 CNS
[45] = system: SNB-75 CNS
[46] = system: SW-620 colon
[47] = system: T-47D breast
[48] = system: TK-10 renal
[49] = system: U251 CNS
[50] = system: UACC-257 melanoma
[51] = system: UACC-62 melanoma
[52] = system: UO-31 renal
[53] = system: CCRF-CEM leukemia
[54] = system: HL-60(TB) leukemia
[55] = system: HOP-62 NSCLC
[56] = system: K-562 leukemia
[57] = system: MOLT-4 leukemia

What does the source list for `Cc1[nH]c2ccccc2c1C1=CC(=O)C=CC1=O`?
GI50 [1]: 20.1 µM; TGI [1]: 43.3 µM; GI50 [2]: 14.5 µM; TGI [2]: 40 µM; GI50 [3]: 21 µM; TGI [3]: 63.9 µM; GI50 [4]: 3.63 µM; TGI [4]: 12.5 µM; GI50 [5]: 11.1 µM; TGI [5]: 24.4 µM; GI50 [6]: 5.66 µM; TGI [6]: 22.6 µM; GI50 [7]: 2.48 µM; TGI [7]: 5.43 µM; GI50 [8]: 13.4 µM; TGI [8]: 26.8 µM; GI50 [9]: 17.7 µM; TGI [9]: 45 µM; GI50 [10]: 15.7 µM; TGI [10]: 29.4 µM; GI50 [11]: 10.5 µM; TGI [11]: 24.8 µM; GI50 [12]: 10.9 µM; TGI [12]: 27.1 µM; GI50 [13]: 13 µM; TGI [13]: 26.3 µM; GI50 [14]: 8.86 µM; TGI [14]: 53.3 µM; GI50 [15]: 13.6 µM; TGI [15]: 40.1 µM; GI50 [16]: 12 µM; TGI [16]: 27.2 µM; GI50 [17]: 12.2 µM; TGI [17]: 25.5 µM; GI50 [18]: 9.77 µM; TGI [18]: 22.3 µM; GI50 [19]: 13.6 µM; TGI [19]: 27.7 µM; GI50 [20]: 7.45 µM; TGI [20]: 27.8 µM; GI50 [21]: 9.9 µM; TGI [21]: 28.8 µM; GI50 [22]: 12.9 µM; TGI [22]: 29.2 µM; GI50 [23]: 5.04 µM; TGI [23]: 23.5 µM; GI50 [24]: 15.6 µM; TGI [24]: 30.9 µM; GI50 [25]: 13 µM; TGI [25]: 31.5 µM; GI50 [26]: 15.5 µM; TGI [26]: 42.2 µM; GI50 [27]: 1.66 µM; TGI [27]: 3.28 µM; GI50 [28]: 10.9 µM; TGI [28]: 28.4 µM; GI50 [29]: 2.16 µM; TGI [29]: 4.6 µM; GI50 [30]: 4.2 µM; TGI [30]: 15.3 µM; GI50 [31]: 17.7 µM; TGI [31]: 32.8 µM; GI50 [32]: 13.2 µM; TGI [32]: 34.9 µM; GI50 [33]: 12.7 µM; TGI [33]: 30 µM; GI50 [34]: 11 µM; TGI [34]: 38.2 µM; GI50 [35]: 10.6 µM; TGI [35]: 22.9 µM; GI50 [36]: 13.1 µM; TGI [36]: 27.4 µM; GI50 [37]: 16.4 µM; TGI [37]: 41 µM; GI50 [38]: 14.3 µM; TGI [38]: 28.3 µM; GI50 [39]: 12.3 µM; TGI [39]: 28.9 µM; GI50 [40]: 14.1 µM; TGI [40]: 27.4 µM; GI50 [41]: 12 µM; TGI [41]: 25.3 µM; GI50 [42]: 14.5 µM; TGI [42]: 33.5 µM; GI50 [43]: 14.4 µM; TGI [43]: 32 µM; GI50 [44]: 16.6 µM; TGI [44]: 41.6 µM; GI50 [45]: 9.19 µM; TGI [45]: 34.7 µM; GI50 [46]: 4.55 µM; TGI [46]: 23 µM; GI50 [47]: 2.65 µM; TGI [47]: 5.75 µM; GI50 [48]: 2.32 µM; TGI [48]: 5.85 µM; GI50 [49]: 14.8 µM; TGI [49]: 31.4 µM; GI50 [50]: 14.3 µM; TGI [50]: 28.6 µM; GI50 [51]: 10.4 µM; TGI [51]: 23.4 µM; GI50 [52]: 10.5 µM; TGI [52]: 23.2 µM

How did the TGI [1] turn out when `N#CC1C(=O)NC2=C(CCOc3c2ccc2ccccc32)C1c1ccc(F)cc1` (centres undefined) was run?
The TGI was 32.8 µM.

What about the TGI [2] of the same compound?
Its TGI is 44.1 µM.

And the TGI [3]?
Its TGI is > 100 µM.

And the TGI [4]?
The TGI was 26.1 µM.

What about the TGI [5] of the same compound?
The TGI was > 100 µM.

And the TGI [6]?
Its TGI is 71.4 µM.

What about the TGI [53] of the same compound?
The TGI was > 100 µM.

What about the TGI [7] of the same compound?
The TGI was > 100 µM.

What about the TGI [8] of the same compound?
Its TGI is > 100 µM.

What about the TGI [9] of the same compound?
Its TGI is > 100 µM.

What about the TGI [10] of the same compound?
The TGI was 59.9 µM.

And the TGI [11]?
The TGI was 27 µM.

And the TGI [12]?
The TGI was > 100 µM.

What about the TGI [54] of the same compound?
Its TGI is > 100 µM.

What about the TGI [55] of the same compound?
The TGI was 33.6 µM.

What about the TGI [13] of the same compound?
The TGI was 28.5 µM.

And the TGI [14]?
The TGI was 43.8 µM.

What about the TGI [16] of the same compound?
Its TGI is 37.9 µM.

And the TGI [56]?
Its TGI is > 100 µM.

What about the TGI [17] of the same compound?
Its TGI is > 100 µM.

What about the TGI [19] of the same compound?
The TGI was 68 µM.

And the TGI [20]?
Its TGI is 79 µM.

And the TGI [21]?
The TGI was > 100 µM.

What about the TGI [23] of the same compound?
The TGI was > 100 µM.

And the TGI [57]?
The TGI was > 100 µM.

What about the TGI [25] of the same compound?
The TGI was 74 µM.

What about the TGI [26] of the same compound?
The TGI was > 100 µM.

And the TGI [27]?
The TGI was > 100 µM.

What about the TGI [28] of the same compound?
The TGI was 43.8 µM.

What about the TGI [29] of the same compound?
The TGI was 40.7 µM.

What about the TGI [30] of the same compound?
The TGI was > 100 µM.

And the TGI [31]?
Its TGI is 71.9 µM.

And the TGI [32]?
Its TGI is > 100 µM.

And the TGI [33]?
Its TGI is 54.8 µM.

What about the TGI [35] of the same compound?
The TGI was 36 µM.

And the TGI [36]?
Its TGI is 88.8 µM.

What about the TGI [37] of the same compound?
Its TGI is 42.4 µM.

What about the TGI [38] of the same compound?
Its TGI is > 100 µM.

What about the TGI [39] of the same compound?
The TGI was > 100 µM.

And the TGI [41]?
The TGI was 80.8 µM.

What about the TGI [42] of the same compound?
Its TGI is 55 µM.

And the TGI [43]?
Its TGI is 27.3 µM.

And the TGI [44]?
The TGI was 52.7 µM.

And the TGI [45]?
The TGI was 54 µM.

What about the TGI [46] of the same compound?
Its TGI is > 100 µM.

And the TGI [47]?
The TGI was 99.5 µM.

What about the TGI [48] of the same compound?
The TGI was 43.2 µM.

What about the TGI [49] of the same compound?
Its TGI is 24.7 µM.

And the TGI [50]?
The TGI was > 100 µM.

And the TGI [52]?
The TGI was 24.7 µM.

Reference: PubChem BioAssay (NCI)
